Data set [1] in a line: Test of metabolic stability in the presence of liver microsomes. The following applies: liver microsomes 0.5 mg/ml, product 10 μM, 37° C., pH 7.4, NADP/G6P cofactors; disappearance of parent by LC/MS/MS; species not given; read-out: t½. The class given is in vitro ADME. On the procedure: Test of Metabolic Stability in the Presence of Liver Microsomes
The microsomes are cellular endoplasmic reticulum vesicles obtained after purification, from liver tissue. They contain membrane enzymes (Cytochromes P450) involved in oxidative metabolism (phase I).
In a buffered reaction medium at 37° C., the test product is incubated in the presence of microsomes from different species. Samples of the incubate are taken at different times (kinetics). Quantification by LC/MS/MS analysis makes it possible to measure the disappearance of parent product associated with the phase I liver metabolism.
The products are dissolved at 10 mM in DMSO. They are incubated at 10 μM in the presence of microsomes (0.5 mg/ml). The reaction medium is formed from 100 mM phosphate buffer at pH 7.4, G6PDH (0.4 U/ml), 0.01% Pluronic acid and cofactors MgCl2 5 mM, NADP and G6P (1.3 mM and 3.3 mM, respectively). Samples of the reaction medium are taken at 0, 5, 10, 15, 30 and 60 minutes. At each time, the enzymatic reaction is stopped by adding methanol. After centrifugation (3000 rpm, 30 minutes), the samples are analysed by LC/MS/MS. The concentration of parent product remaining is quantified over time and allows a half-life to be calculated for each product.

A short description of data set [2]: Log P and Log D by HPLC-MS (octanol-water). The class given is physicochemical. The following applies: octanol/water (50/50 v/v); octanol-water 50/50, pH 6.5, LC/MS/MS. The text has this: Lod P and Loci D by HPLC-MS
Log P, also known as Log Kow, (octanol/water partition coefficient) enables characterization of the lipophilic nature of a molecule. Log P=Log(Coct/Cwater)
In contrast with Log P, Log D is a determination of a given pH.
Preparation of the Samples
The molecule at 10^−2M in DMSO is placed in an octanol-water mixture (50/50 volume/volume).
After stirring for ten hours, the sample is centrifuged and the two phases are separated in order to be analysed. The octanol phase is diluted in methanol before assay.
The concentrations of test molecule present in each phase are determined by an LC/MS/MS analysis. Log P=Log(areaoct*Dilution factor/areaaq)

The next data set addresses T1, hMC1R (Homo sapiens, UniProt Q01726).
T1 construct: expressed in transfected cells; host or cells: HEK293
Description: Transactivation test (CRE-Luc luciferase, agonist mode). The data set is classed as cell-based. As to conditions: HEK293 transfected with pCRE-Luc and hMC1R; products tested alone (agonist), 6 hours; normalized to NDP-MSH 10 nM = 100%; read-out: EC50 hMC1-R. On the procedure:
The lines HEK293 are transfected with vectors pCRE-Luc and hMC1R. The cells are cultured at 37° C. and 5% CO2, in DMEM medium supplemented with 10% foetal calf serum.
In the presence of an activator (agonist), the melanocortin receptor will activate the cAMP pathway, which, via the vector CRE-Luc, will lead to the synthesis of luciferase. After addition of a lysis buffer containing a luminescent luciferase substrate, the luminescence proportional to the degree of activation or inhibition of receptor may be measured.
The products are dissolved at 10 mM in DMSO. They are tested as a response dose at 0.1% of DMSO final. The range comprising 10 points and a zero starts at 10 μM with four-fold dilutions. To test agonists, the products are tested alone. To determine the antagonist behaviour, the products of interest are tested in the presence of 1 nM NDP-MSH (reference agonist). The cells are inoculated at a rate of 5000 cells per well (384-well plate) in serum-free DMEM medium and incubated overnight at 37° C. and 5% CO2.
The products and the reference ligand (NDP-MSH) are added the following day and the plates are reincubated for 6 hours at 37° C. and 5% CO2. After adding the lysis buffer containing luciferin, the plates are read in a Top-Count machine. […] An EC50 is calculated for each product using the XLFit software. […]

Another data set deals with B6.Cg-Ay mice. Description: Modulation of the pigmentation of hair during regrowth after depilation in mice. The class given is in vivo. The following applies: female B6.Cg-Ay mice; 5% in ethanol applied topically every day for 11 days after depilation; chromametry 19 days after depilation; smaller L = darker hair. An excerpt: FIG. 2 is a bar graph showing the modulation of the pigmentation of hair during regrowth after depilation in mice, where the L value measures color on a scale where the smaller the value of L, the darker the hair, for two compounds of the invention diluted in ethanol and applied topically each day for 11 days after depilation.
Modulation of the Pigmentation of Hair During Regrowth After Depilation in Mice: (Results in Table of FIG. 2)
Female 8-week-old B6.Cg-Ay mice are shaved and then subjected to depilation with cold wax under gaseous anaesthesia to synchronize all the hair follicles at the start of the anagenic phase.
After depilation, the MC1R agonists diluted to 5% in ethanol are applied topically every day to the depilated area for 11 days. Nineteen days after depilation, the pigmentation of the hairs is measured by chromametry on the area of regrowth: the L value measures the colour on a scale ranging from black to white (the smaller the value of L, the darker the hair).

This note sets out measurements from US8877968B2, “Melanocortin receptor modulators, process for preparing them and use there in human medicine and cosmetics” (Galderma Research & Development, priority 2008, dated 2014).

T1 sequence (Q01726 whole entry): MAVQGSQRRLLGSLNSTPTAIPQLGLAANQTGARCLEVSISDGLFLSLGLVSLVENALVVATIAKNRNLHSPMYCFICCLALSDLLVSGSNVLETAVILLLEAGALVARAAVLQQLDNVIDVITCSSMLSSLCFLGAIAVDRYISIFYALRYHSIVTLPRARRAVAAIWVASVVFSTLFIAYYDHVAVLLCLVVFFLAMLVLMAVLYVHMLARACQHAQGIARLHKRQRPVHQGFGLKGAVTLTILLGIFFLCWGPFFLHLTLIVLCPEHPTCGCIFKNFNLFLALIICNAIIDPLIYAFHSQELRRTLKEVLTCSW

Take `CCCC(=O)C1(C2CCCCC2)CCN(C(=O)[C@@H](Cc2ccc(OC)cc2)NC(=O)NCCc2c[nH]cn2)CC1` [Compound 40, 1-[(R)-2-(4-Butyryl-4-cyclohexylpiperidin-1-yl)-1-(4-methoxybenzyl)-2-oxoethyl]-3-[2-(1H-imidazol-4-yl)ethyl]urea]: in data set [1], the half-life at 10 μM lay within 3 to 4 min. This compound registered a logD at 10 h in data set [2] of 4.8. Further, the EC50 on hMC1R was determined as 120 nM. Further, the “Value of L at D19, Mean” value in the data set on B6.Cg-Ay mice is 31.00.
As to `CCOC(=O)C1(C2CCCCC2)CCN(C(=O)[C@@H](Cc2ccc(OC)cc2)NC(=O)NCCc2c[nH]cn2)CC1` [Compound 34, Ethyl 4-cyclohexyl-1-[(R)-2-{3-[2-(1H-imidazol-4-yl)ethyl]-ureido}-3-(4-methoxyphenyl)propionyl]piperidine-4-carboxylate], in data set [1], the half-life at 10 μM fell in the range of 3 to 4 min. This compound also showed a logD at 10 h in data set [2] of 4. For the same compound, the EC50 on hMC1R worked out at 60 nM. The “Value of L at D19, Mean” value with B6.Cg-Ay mice is recorded as 27.42.
